The values below come from patent US8288548B2, “Oxazolo[5-4-b]pyridin-5-yl compounds” (Eli Lilly and Company, priority 2010, dated 2012).

Molecules are shown by their SMILES.

What is called IC50 is the concentration that gives 50% inhibition.

One test has as its target human p38α MAP kinase (Homo sapiens, UniProt Q16539). Kind of test: Inhibition of p38α MAP kinase enzyme activity (33P-ATP filter assay). In kind it is biochemical. Particulars: 100 μM ATP, 11.8 nM p38α MAP kinase. As for the experimental part: The kinase reaction buffer is prepared as a stock solution containing 1440 μL of 1 M 4-(2-hydroxyethyl)-1-piperazineethanesulfonic acid (HEPES) pH 7.5, 240 μL of 1 M MgCl2, 72 μL of 1 M dithiothreitol (DTT), 25 μL of 10% TRITON® X-100, 43223 μL of H2O. The substrate mix is prepared by combining the following: 2775 μL kinase reaction buffer, 75.0 μL adenosine triphosphate (ATP) at 10 mM, 270 μL EGFR peptide (Upstate Biotechnology/Millipore) at 4 mM (9.17 mg/mL) and 12.5 μL ^33P-ATP. The p38 MAP kinase enzyme stock solution is prepared by diluting 0.1 mg/mL solution of purified human p38α MAP kinase in 3000 μL of reaction buffer. Stock solutions of test compounds are generated by dissolving the compounds in 100% dimethyl sulfoxide (DMSO) at 10 mM. 100 μM stock dilution plates are generated by diluting 2 μL of 10 mM stock in 198 μL of 20% DMSO. 1:3 dilutions in 20% DMSO are generated from the 100 μM stock using a Tecan liquid handler.
For the kinase assay, 5 μL of diluted compound is transferred to the reaction plate, followed by 10 μL of enzyme stock solution (added using a MULTIDROP® liquid dispenser). […] Following the washing steps, 80 μL of MICROSCINT™20 is added and the radioactivity counted in a Trilux MICROBETA®. IC50 values are calculated using Activity Base software (IDBS).

The next test deals with T1, p38β MAP kinase (Homo sapiens, UniProt Q15759).
T1 construct: purchased Upstate Biotechnology/Millipore
Kind of test: Inhibition of p38β MAP kinase enzyme activity. In kind it is biochemical. Particulars: 20 μM ATP. As for the experimental part: The kinase reaction buffer is prepared essentially as described above. The substrate mix is prepared by combining the following: 2840 μL Kinase Reaction Buffer, 15.0 μL ATP at 10 mM, 125 μL EGFR peptide at 4 mM (9.174 mg/ml), 18.75 μL ^33P-ATP. The p38β MAP kinase enzyme stock solution is prepared by diluting 2.25 μL of a 0.57 mg/mL solution of commercial p38β MAP kinase (Upstate Biotechnology/Millipore) in 2000 μL of reaction buffer. Stock solutions of test compounds are generated essentially as described above.
The kinase assay is performed essentially as described for p38α MAP kinase. Final reaction conditions are as follows: 25 mM HEPES pH 7.5, 4.25 mM MgCl2, 1.30 mM DTT, 0.004% TRITON® X-100, 20 μM ATP, 65 μM EGFR peptide, 0.25 ng/μL p38β MAP kinase, 4% DMSO. […] For example, Example 1 has an IC50=0.007 μM.

Test [1] has as its system p38 MAP kinase. Kind of test: In vivo inhibition of p38 MAP kinase in U87MG tumor-bearing mice (p-MAPKAPK2 in tumor lysates). Further details: species or system athymic nude mice. Particulars: oral, 2 hours after dosing. As for the experimental part:
A murine xenograft model utilizing the human tumor cell line, U87MG, is used for assessment of inhibition of p38 MAP kinase in tumors
Female athymic nude mice (24-26 g, Harlan) are injected subcutaneously in the rear flank with 5×10^6 U87MG cells per animal Cells are injected in a 0.2 mL volume with a 1:1 mixture of cell culture media and BD […]™ matrix. 7 days after implant tumors are measured using a caliper and the data recorded. Tumors are measured twice weekly thereafter and the tumor size is recorded. When tumors reach an average volume of approximately 250 mm^3 (usually 10-15 days after implant), animals are randomized into groups of 8-10 for treatment. Animals are then dosed orally with 0.2 mL vehicle (1% HEC, 0.25% TWEEN® 80, 0.05% antifoam) alone or vehicle containing test compound. 2 Hours after dosing, animals are euthanized. […]
p-MAPKAPK2 levels in the tumor lysates are determined using a Mesoscale Discovery (MSD) capture ELISA kit (2 Phospho-MAPKAPK-2 (Thr334)). The concentration of protein in the lysates is determined using a BioRad DC protein assay kit (BioRad). […] Following incubation with the detection antibody, the MSD plate is washed followed by addition of MSD read buffer. After passage of current over the electrode, electro-chemiluminescence results in the generation of light that is quantified using the MSD Sector 6000 instrument. […]

Test [2] has as its system p38 MAP kinase. As to the kind of experiment: Inhibition of p38 MAP kinase in the cell-based assay (p-MAPKAPK2 cELISA, TNFα-stimulated HeLa cells). The following applies: Homo sapiens, TNFα stimulation, read-out: Relative IC50.

T1 sequence (Q15759 whole entry): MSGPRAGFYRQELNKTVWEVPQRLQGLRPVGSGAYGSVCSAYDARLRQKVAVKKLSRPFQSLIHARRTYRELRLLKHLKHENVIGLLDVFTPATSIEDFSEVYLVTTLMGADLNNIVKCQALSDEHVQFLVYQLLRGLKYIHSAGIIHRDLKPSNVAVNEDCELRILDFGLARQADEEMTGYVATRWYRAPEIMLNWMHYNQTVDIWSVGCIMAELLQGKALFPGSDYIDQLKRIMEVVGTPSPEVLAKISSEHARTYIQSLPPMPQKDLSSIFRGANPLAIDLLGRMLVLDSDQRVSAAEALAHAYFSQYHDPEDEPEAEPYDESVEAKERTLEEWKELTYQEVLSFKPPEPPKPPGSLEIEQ
human p38α MAP kinase, sequence (Q16539 whole entry): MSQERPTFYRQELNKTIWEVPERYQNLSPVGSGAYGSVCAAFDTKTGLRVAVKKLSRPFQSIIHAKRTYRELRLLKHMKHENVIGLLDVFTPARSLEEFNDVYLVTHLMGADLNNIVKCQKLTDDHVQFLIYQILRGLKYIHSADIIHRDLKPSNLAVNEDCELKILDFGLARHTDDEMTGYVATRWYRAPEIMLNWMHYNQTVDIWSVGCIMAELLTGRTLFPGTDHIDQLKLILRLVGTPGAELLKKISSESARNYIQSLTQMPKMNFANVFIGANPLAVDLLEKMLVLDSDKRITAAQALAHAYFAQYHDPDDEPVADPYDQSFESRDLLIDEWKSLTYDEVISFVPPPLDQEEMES

With `COCC[C@H](C)Nc1nc2ccc(-c3nc(C(C)(C)CO)[nH]c3-c3ccc(F)cc3F)nc2o1` [Example 1, 2-[5-(2,4-Difluorophenyl)-4-[2-[[(1S)-3-methoxy-1-methyl-propyl]amino]oxazolo[5,4-b]pyridin-5-yl]-1H-imidazol-2-yl]-2-methyl-propan-1-ol], the results for the IC50 against human p38α MAP kinase, against p38β MAP kinase and in the test with p38 MAP kinase [2] were 3 nM, 7 nM and 1.6 nM, respectively. Moreover, the “TED70 for p38 MAP kinase target inhibition in tumors” value in the test with p38 MAP kinase [1] stood at 2.9 mg/kg. The molecule further had a TEC70 in the test with p38 MAP kinase [1] (U87MG tumors) of 31.3 ng/mL.
